Test results reported in the kinase profiling compilation of Christmann-Franck et al. (2016).

Key:
Experiment in all cases: radiometric filter-binding kinase assay, Kinase HotSpot
Conditions in all cases: compound 0.5 µM; ATP 10 µM
MAP3K14 (human) = MAP3K14 (human) (UniProt Q99558)
CAMKK2 (human) = CAMKK2 (human) (UniProt Q96RR4)
CDK2 CCNA2 (human) = CDK2 CCNA2 (human) (UniProt P24941+P20248)
PKN2 (human) = PKN2 (human) (UniProt Q16513)
GRK7 (human) = GRK7 (human) (UniProt Q8WTQ7)
EPHB1 (human) = EPHB1 (human) (UniProt P54762)
PKN1 (human) = PKN1 (human) (UniProt Q16512)
PDGFRB (human) = PDGFRB (human) (UniProt P09619)
PDGFRB (human), sequence (P09619 whole entry, looked up): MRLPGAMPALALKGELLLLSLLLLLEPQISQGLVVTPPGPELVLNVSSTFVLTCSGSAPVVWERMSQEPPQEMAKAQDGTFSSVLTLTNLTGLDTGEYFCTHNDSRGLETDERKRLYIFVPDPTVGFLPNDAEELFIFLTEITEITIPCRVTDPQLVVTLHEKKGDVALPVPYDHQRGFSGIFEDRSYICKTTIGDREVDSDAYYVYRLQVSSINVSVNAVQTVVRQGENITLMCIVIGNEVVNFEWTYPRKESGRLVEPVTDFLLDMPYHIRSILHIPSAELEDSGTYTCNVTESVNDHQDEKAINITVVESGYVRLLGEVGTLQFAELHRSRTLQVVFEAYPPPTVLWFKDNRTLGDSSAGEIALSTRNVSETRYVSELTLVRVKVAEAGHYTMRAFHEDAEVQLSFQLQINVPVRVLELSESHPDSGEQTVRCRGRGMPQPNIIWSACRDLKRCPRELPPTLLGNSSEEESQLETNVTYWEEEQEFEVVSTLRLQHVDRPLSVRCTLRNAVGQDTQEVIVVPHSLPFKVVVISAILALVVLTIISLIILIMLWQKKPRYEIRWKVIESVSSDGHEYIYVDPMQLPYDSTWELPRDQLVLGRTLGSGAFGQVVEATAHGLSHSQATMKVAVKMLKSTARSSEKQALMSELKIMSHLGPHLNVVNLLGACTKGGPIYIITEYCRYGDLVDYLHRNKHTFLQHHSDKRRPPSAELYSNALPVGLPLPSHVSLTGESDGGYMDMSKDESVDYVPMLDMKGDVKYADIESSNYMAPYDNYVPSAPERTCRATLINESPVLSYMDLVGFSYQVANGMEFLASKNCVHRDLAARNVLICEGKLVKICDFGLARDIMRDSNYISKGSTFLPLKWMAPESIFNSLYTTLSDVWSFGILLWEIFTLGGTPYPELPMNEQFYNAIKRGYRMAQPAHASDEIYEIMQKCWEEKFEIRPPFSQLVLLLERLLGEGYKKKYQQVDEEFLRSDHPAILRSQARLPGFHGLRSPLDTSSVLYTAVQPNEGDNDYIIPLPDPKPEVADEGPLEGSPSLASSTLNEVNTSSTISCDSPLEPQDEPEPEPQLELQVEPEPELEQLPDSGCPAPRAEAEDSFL

NEK11 (human) = NEK11 (human) (UniProt Q8NG66)
DYRK2 (human) = DYRK2 (human) (UniProt Q92630)
MAP3K5 (human) = MAP3K5 (human) (UniProt Q99683)
ERBB4 (human) = ERBB4 (human) (UniProt Q15303)
MARK1 (human) = MARK1 (human) (UniProt Q9P0L2)
CDK9 CCNK (human) = CDK9 CCNK (human) (UniProt O75909+P50750)
CDK1 CCNB1 (human) = CDK1 CCNB1 (human) (UniProt P06493+P14635)
TSSK2 (human) = TSSK2 (human) (UniProt Q96PF2)
TSSK2 (human), sequence (Q96PF2 whole entry, looked up): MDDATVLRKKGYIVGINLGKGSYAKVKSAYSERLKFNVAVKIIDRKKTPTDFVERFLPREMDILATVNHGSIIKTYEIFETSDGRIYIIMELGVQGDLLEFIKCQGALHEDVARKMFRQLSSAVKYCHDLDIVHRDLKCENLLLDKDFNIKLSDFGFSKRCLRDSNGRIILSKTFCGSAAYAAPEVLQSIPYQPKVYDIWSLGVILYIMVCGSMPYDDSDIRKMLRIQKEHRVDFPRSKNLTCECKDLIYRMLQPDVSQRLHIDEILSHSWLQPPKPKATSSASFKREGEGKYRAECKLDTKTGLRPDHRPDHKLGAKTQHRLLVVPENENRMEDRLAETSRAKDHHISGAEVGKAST

MAPK11 (human) = MAPK11 (human) (UniProt Q15759)
PRKCE (human) = PRKCE (human) (UniProt Q02156)
AURKA (human) = AURKA (human) (UniProt O14965)
CSF1R (human) = CSF1R (human) (UniProt P07333)
MYLK2 (human) = MYLK2 (human) (UniProt Q9H1R3)
MYLK2 (human), sequence (Q9H1R3 whole entry, looked up): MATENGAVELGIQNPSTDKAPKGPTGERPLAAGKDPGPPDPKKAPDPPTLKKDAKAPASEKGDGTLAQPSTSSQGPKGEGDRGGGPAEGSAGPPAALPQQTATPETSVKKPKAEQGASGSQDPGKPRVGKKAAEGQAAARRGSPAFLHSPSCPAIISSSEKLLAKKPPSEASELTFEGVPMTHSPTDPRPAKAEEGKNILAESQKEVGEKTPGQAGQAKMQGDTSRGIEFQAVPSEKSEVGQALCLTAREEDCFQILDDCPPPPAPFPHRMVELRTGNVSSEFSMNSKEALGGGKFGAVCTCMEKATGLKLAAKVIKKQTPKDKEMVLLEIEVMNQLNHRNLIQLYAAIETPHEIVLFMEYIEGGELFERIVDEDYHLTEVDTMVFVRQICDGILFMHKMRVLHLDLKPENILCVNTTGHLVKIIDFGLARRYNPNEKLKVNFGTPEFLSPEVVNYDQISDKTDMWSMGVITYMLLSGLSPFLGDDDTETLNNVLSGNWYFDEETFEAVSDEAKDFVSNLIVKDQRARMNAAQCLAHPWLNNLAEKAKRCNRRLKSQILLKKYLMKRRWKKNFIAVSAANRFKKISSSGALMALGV

FGFR2 (human) = FGFR2 (human) (UniProt P21802)
CDK7 CCNH MNAT1 (human) = CDK7 CCNH MNAT1 (human) (UniProt P50613+P51948+P51946)
CDK7 CCNH MNAT1 (human), sequence (P50613 whole entry, looked up): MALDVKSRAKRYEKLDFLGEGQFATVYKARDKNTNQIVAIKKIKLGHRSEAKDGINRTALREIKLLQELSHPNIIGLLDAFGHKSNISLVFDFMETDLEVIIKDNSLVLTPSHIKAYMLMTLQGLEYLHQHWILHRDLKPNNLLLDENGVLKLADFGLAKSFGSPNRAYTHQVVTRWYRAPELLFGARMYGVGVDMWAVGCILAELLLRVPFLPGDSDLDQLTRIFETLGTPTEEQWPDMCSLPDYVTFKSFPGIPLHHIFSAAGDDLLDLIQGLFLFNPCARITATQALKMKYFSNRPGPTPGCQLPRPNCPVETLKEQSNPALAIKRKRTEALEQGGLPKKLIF
CDK7 CCNH MNAT1 (human), sequence (P51946 whole entry, looked up): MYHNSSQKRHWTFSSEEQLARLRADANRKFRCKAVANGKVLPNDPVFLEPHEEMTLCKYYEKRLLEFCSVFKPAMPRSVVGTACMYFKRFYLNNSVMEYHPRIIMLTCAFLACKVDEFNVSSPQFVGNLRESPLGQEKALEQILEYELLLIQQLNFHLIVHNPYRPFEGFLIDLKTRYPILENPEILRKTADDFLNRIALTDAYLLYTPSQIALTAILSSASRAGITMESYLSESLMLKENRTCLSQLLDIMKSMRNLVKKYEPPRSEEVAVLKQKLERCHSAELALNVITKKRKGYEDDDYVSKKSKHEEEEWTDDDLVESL
CDK7 CCNH MNAT1 (human), sequence (P51948 whole entry, looked up): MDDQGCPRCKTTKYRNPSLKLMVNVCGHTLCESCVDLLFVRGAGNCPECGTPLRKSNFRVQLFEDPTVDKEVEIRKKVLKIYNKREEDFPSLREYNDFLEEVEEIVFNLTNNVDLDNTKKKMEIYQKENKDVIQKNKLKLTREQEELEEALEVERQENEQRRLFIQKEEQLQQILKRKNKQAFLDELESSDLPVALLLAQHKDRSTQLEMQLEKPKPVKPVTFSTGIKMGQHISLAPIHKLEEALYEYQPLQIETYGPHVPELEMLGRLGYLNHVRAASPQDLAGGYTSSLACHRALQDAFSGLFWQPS

RIPK2 (human) = RIPK2 (human) (UniProt O43353)
TGFBR2 (human) = TGFBR2 (human) (UniProt P37173)
CAMK1 (human) = CAMK1 (human) (UniProt Q14012)
MAPKAPK3 (human) = MAPKAPK3 (human) (UniProt Q16644)
TNK2 (human) = TNK2 (human) (UniProt Q07912)
IRAK1 (human) = IRAK1 (human) (UniProt P51617)
PRKCI (human) = PRKCI (human) (UniProt P41743)
ROCK1 (human) = ROCK1 (human) (UniProt Q13464)
CDC42BPA (human) = CDC42BPA (human) (UniProt Q5VT25)
MERTK (human) = MERTK (human) (UniProt Q12866)
MAPKAPK5 (human) = MAPKAPK5 (human) (UniProt Q8IW41)
TAOK1 (human) = TAOK1 (human) (UniProt Q7L7X3)
MAP3K10 (human) = MAP3K10 (human) (UniProt Q02779)
MAP3K10 (human), sequence (Q02779 whole entry, looked up): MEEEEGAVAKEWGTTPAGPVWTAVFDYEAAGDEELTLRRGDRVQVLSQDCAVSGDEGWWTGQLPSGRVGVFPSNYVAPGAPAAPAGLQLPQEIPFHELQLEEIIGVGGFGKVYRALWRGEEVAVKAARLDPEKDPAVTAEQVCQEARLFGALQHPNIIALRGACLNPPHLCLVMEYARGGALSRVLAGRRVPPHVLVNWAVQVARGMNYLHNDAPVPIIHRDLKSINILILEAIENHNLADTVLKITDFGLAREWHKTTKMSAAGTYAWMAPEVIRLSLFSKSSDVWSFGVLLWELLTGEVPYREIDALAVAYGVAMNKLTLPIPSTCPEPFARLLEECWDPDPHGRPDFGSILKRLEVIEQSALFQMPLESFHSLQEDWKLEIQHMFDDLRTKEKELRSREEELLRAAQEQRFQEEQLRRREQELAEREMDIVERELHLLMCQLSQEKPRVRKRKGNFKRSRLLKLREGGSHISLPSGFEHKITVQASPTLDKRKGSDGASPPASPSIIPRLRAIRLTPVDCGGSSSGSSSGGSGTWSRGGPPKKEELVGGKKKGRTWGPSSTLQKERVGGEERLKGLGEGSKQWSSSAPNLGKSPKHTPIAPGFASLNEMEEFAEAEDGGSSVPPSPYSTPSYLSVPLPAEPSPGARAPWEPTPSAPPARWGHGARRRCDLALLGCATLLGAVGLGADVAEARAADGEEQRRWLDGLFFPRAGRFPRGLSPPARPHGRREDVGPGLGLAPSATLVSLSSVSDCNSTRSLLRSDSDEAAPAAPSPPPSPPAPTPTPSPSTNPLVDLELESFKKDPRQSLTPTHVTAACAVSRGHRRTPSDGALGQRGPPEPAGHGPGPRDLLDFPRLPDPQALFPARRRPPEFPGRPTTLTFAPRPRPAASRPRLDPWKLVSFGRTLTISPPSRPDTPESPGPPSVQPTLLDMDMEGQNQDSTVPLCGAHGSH

TTK (human) = TTK (human) (UniProt P33981)
PAK3 (human) = PAK3 (human) (UniProt O75914)
CDK6 CCND3 (human) = CDK6 CCND3 (human) (UniProt P30281+Q00534)
CDK5 CDK5R1 p35 (human) = CDK5 CDK5R1 p35 (human) (UniProt Q00535+Q15078)
PTK2 (human) = PTK2 (human) (UniProt Q05397)
PTK2 (human), sequence (Q05397 whole entry, looked up): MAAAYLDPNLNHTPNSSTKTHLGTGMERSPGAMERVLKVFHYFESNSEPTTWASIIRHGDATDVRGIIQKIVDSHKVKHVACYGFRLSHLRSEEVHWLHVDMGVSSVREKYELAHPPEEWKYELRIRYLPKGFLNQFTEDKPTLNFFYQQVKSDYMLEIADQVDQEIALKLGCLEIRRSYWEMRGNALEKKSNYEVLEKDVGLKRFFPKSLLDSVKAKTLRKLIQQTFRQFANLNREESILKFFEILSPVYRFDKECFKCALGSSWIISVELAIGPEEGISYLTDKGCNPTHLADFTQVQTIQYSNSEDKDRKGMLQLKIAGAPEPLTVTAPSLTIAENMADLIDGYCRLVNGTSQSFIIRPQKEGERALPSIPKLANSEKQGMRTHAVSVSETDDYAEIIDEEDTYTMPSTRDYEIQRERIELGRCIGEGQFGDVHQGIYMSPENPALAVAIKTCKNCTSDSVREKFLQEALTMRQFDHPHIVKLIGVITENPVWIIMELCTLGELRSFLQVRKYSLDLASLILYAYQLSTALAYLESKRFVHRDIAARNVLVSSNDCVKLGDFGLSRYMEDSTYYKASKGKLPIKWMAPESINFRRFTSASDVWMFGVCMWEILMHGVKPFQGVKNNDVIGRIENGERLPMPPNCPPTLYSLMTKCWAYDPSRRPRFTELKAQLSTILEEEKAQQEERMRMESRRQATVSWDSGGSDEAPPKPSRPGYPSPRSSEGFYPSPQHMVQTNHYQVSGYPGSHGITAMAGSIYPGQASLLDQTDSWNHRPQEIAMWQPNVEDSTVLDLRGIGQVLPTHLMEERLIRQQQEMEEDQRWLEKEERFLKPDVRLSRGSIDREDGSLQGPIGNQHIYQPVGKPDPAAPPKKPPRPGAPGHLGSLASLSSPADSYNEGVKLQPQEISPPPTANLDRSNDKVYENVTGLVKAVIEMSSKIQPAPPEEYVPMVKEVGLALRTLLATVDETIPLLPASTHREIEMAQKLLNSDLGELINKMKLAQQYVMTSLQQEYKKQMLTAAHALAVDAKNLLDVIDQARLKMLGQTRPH

N#Cc1c[nH]c2c[nH]/c(=N\Cc3cccnc3)cc2/c1=N\c1ccc(F)c(Cl)c1
residual activity (MAP3K14 (human)): 118%
residual activity (CAMKK2 (human)): 90.1%
residual activity (CDK2 CCNA2 (human)): 75.1%
residual activity (PKN2 (human)): 85.9%
residual activity (GRK7 (human)): 95.5%
residual activity (EPHB1 (human)): 93.1%
residual activity (PKN1 (human)): 101%
residual activity (PDGFRB (human)): 101%
residual activity (NEK11 (human)): 87.1%
residual activity (DYRK2 (human)): 95.5%
residual activity (MAP3K5 (human)): 106%
residual activity (ERBB4 (human)): 72.6%
residual activity (MARK1 (human)): 91.6%
residual activity (CDK9 CCNK (human)): 97.3%
residual activity (CDK1 CCNB1 (human)): 84.6%
residual activity (TSSK2 (human)): 100%
residual activity (MAPK11 (human)): 102%
residual activity (PRKCE (human)): 101%
residual activity (AURKA (human)): 98.1%
residual activity (CSF1R (human)): 96.3%
residual activity (MYLK2 (human)): 96.2%
residual activity (FGFR2 (human)): 103%
residual activity (CDK7 CCNH MNAT1 (human)): 87.4%
residual activity (RIPK2 (human)): 85.3%
residual activity (TGFBR2 (human)): 118%
residual activity (CAMK1 (human)): 99.1%
residual activity (MAPKAPK3 (human)): 94%
residual activity (TNK2 (human)): 89.9%
residual activity (IRAK1 (human)): 114%
residual activity (PRKCI (human)): 94.7%
residual activity (ROCK1 (human)): 99.8%
residual activity (CDC42BPA (human)): 80%
residual activity (MERTK (human)): 67.2%
residual activity (MAPKAPK5 (human)): 99.6%
residual activity (TAOK1 (human)): 89.9%
residual activity (MAP3K10 (human)): 101%
residual activity (TTK (human)): 99.1%
residual activity (PAK3 (human)): 99.2%
residual activity (CDK6 CCND3 (human)): 88.8%
residual activity (CDK5 CDK5R1 p35 (human)): 80.4%
residual activity (PTK2 (human)): 99.6%

O=C1Nc2ccc(Br)cc2/C1=C\c1cc2c([nH]1)CCCC2
residual activity (MAP3K14 (human)): 112%
residual activity (CAMKK2 (human)): 68.1%
residual activity (CDK2 CCNA2 (human)): 90.8%
residual activity (PKN2 (human)): 91.3%
residual activity (GRK7 (human)): 85.2%
residual activity (EPHB1 (human)): 85.5%
residual activity (PKN1 (human)): 91.7%
residual activity (PDGFRB (human)): 58.8%
residual activity (NEK11 (human)): 111%
residual activity (DYRK2 (human)): 90.8%
residual activity (MAP3K5 (human)): 101%
residual activity (ERBB4 (human)): 84.6%
residual activity (MARK1 (human)): 69%
residual activity (CDK9 CCNK (human)): 96.7%
residual activity (CDK1 CCNB1 (human)): 98.5%
residual activity (TSSK2 (human)): 89.8%
residual activity (MAPK11 (human)): 96.8%
residual activity (PRKCE (human)): 99.1%
residual activity (AURKA (human)): 87.5%
residual activity (CSF1R (human)): 49.7%
residual activity (MYLK2 (human)): 78.2%
residual activity (FGFR2 (human)): 87.4%
residual activity (CDK7 CCNH MNAT1 (human)): 93.6%
residual activity (RIPK2 (human)): 87.2%
residual activity (TGFBR2 (human)): 101%
residual activity (CAMK1 (human)): 98.4%
residual activity (MAPKAPK3 (human)): 95.1%
residual activity (TNK2 (human)): 92.8%
residual activity (IRAK1 (human)): 97%
residual activity (PRKCI (human)): 92%
residual activity (ROCK1 (human)): 98.8%
residual activity (CDC42BPA (human)): 81.9%
residual activity (MERTK (human)): 81.2%
residual activity (MAPKAPK5 (human)): 90.6%
residual activity (TAOK1 (human)): 92.3%
residual activity (MAP3K10 (human)): 99.8%
residual activity (TTK (human)): 95.1%
residual activity (PAK3 (human)): 96.4%
residual activity (CDK6 CCND3 (human)): 85.8%
residual activity (CDK5 CDK5R1 p35 (human)): 84.6%
residual activity (PTK2 (human)): 81.9%

COc1cc2ncnc(Nc3ccc(OCc4ccccc4)cc3)c2cc1OC
residual activity (MAP3K14 (human)): 84.4%
residual activity (CAMKK2 (human)): 99.7%
residual activity (CDK2 CCNA2 (human)): 100%
residual activity (PKN2 (human)): 94.1%
residual activity (GRK7 (human)): 101%
residual activity (EPHB1 (human)): 101%
residual activity (PKN1 (human)): 101%
residual activity (PDGFRB (human)): 93%
residual activity (NEK11 (human)): 90.4%
residual activity (DYRK2 (human)): 111%
residual activity (MAP3K5 (human)): 97.8%
residual activity (ERBB4 (human)): 9.19%
residual activity (MARK1 (human)): 103%
residual activity (CDK9 CCNK (human)): 103%
residual activity (CDK1 CCNB1 (human)): 89.9%
residual activity (TSSK2 (human)): 104%
residual activity (MAPK11 (human)): 96.9%
residual activity (PRKCE (human)): 99.4%
residual activity (AURKA (human)): 91.3%
residual activity (CSF1R (human)): 97.8%
residual activity (MYLK2 (human)): 97.5%
residual activity (FGFR2 (human)): 103%
residual activity (CDK7 CCNH MNAT1 (human)): 98.8%
residual activity (RIPK2 (human)): 61.6%
residual activity (TGFBR2 (human)): 121%
residual activity (CAMK1 (human)): 98.4%
residual activity (MAPKAPK3 (human)): 102%
residual activity (TNK2 (human)): 53.1%
residual activity (IRAK1 (human)): 97.4%
residual activity (PRKCI (human)): 101%
residual activity (ROCK1 (human)): 96.6%
residual activity (CDC42BPA (human)): 101%
residual activity (MERTK (human)): 19.5%
residual activity (MAPKAPK5 (human)): 100%
residual activity (TAOK1 (human)): 94.4%
residual activity (MAP3K10 (human)): 94.9%
residual activity (TTK (human)): 96.8%
residual activity (PAK3 (human)): 97.7%
residual activity (CDK6 CCND3 (human)): 97.8%
residual activity (CDK5 CDK5R1 p35 (human)): 103%
residual activity (PTK2 (human)): 105%

COc1ccc(S(=O)(=O)N(CCO)c2ccccc2CN(C)C/C=C/c2ccc(Cl)cc2)cc1
residual activity (MAP3K14 (human)): 90.8%
residual activity (CAMKK2 (human)): 90.7%
residual activity (CDK2 CCNA2 (human)): 99.7%
residual activity (PKN2 (human)): 101%
residual activity (GRK7 (human)): 114%
residual activity (EPHB1 (human)): 93.3%
residual activity (PKN1 (human)): 110%
residual activity (PDGFRB (human)): 104%
residual activity (NEK11 (human)): 105%
residual activity (DYRK2 (human)): 87.5%
residual activity (MAP3K5 (human)): 93.7%
residual activity (ERBB4 (human)): 104%
residual activity (MARK1 (human)): 98.4%
residual activity (CDK9 CCNK (human)): 99.1%
residual activity (CDK1 CCNB1 (human)): 105%
residual activity (TSSK2 (human)): 107%
residual activity (MAPK11 (human)): 103%
residual activity (PRKCE (human)): 97.2%
residual activity (AURKA (human)): 97.5%
residual activity (CSF1R (human)): 103%
residual activity (MYLK2 (human)): 97.8%
residual activity (FGFR2 (human)): 98.6%
residual activity (CDK7 CCNH MNAT1 (human)): 97.6%
residual activity (RIPK2 (human)): 87%
residual activity (TGFBR2 (human)): 97.2%
residual activity (CAMK1 (human)): 105%
residual activity (MAPKAPK3 (human)): 101%
residual activity (TNK2 (human)): 94.1%
residual activity (IRAK1 (human)): 98%
residual activity (PRKCI (human)): 97.5%
residual activity (ROCK1 (human)): 99.7%
residual activity (CDC42BPA (human)): 100%
residual activity (MERTK (human)): 97%
residual activity (MAPKAPK5 (human)): 100%
residual activity (TAOK1 (human)): 103%
residual activity (MAP3K10 (human)): 92.4%
residual activity (TTK (human)): 83.3%
residual activity (PAK3 (human)): 102%
residual activity (CDK6 CCND3 (human)): 102%
residual activity (CDK5 CDK5R1 p35 (human)): 99.9%
residual activity (PTK2 (human)): 104%
